Measured values published in US9365522B2, “Pyrazole amide derivative” (AMGEN INC., priority 2015, dated 2016).

Biological target: T1, ligand binding domain of human ROR gamma (Homo sapiens, UniProt P51449)
T1 construct: NM_001001523; expressed in transfected cells; host or cells: HEK293T
T1 sequence (P51449 247-497 isoform P51449-2): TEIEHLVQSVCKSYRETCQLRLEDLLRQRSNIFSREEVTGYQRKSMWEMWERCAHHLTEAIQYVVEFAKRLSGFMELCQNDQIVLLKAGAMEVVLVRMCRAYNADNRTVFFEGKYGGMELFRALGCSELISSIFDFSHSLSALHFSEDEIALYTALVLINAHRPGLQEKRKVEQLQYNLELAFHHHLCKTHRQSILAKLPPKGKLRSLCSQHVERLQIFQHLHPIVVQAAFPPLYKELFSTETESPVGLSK
Test: ROR gamma reporter gene assay (GAL4-RORγ LBD luciferase, Dual-Glo)
Format: cell-based
Conditions: HEK293T cells transfected with pM-ROR gamma, 8 concentrations 3.5 nM to 10.5 μM, 24 h incubation; read-out: result (pIC50, inhibition of RORγ transcriptional activity) (converted)
In short: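 Transient GAL4-RORγ LBD (aa 247-497) / 5×UAS-luc / pRL-CMV cotransfection in HEK293T, charcoal-stripped 10% FBS. 8-pt dose, 3.5 nM–10.5 μM, 0.075% DMSO final. 24 h, 37 °C, 5% CO2. Dual-Glo firefly/renilla readout; pIC50 from curve fit.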

Row | IC50 [pM] | Structure (SMILES)
1 | 575000 | O=C(CN(Cc1ccc(F)cc1)C(=O)c1cnn([C@H]2CCC(C(=O)O)C2)c1C(F)(F)F)c1c(Cl)cncc1Cl (stereo in doubt) [Example 93, (1S,3S)-3-(4-((2-(3,5-dichloropyridin-4-yl)-2-oxoethyl)-((4-fluorophenyl)methyl)carbamoyl)-5-(trifluoromethyl)pyrazol-1-yl)cyclopentane-1-carboxylic acid]
2 | 380000 | C[C@]1(C(=O)O)CC[C@H](n2ncc(C(=O)N(CC(=O)c3c(Cl)cncc3Cl)CC3(O)CCCC3)c2C(F)(F)F)CC1 [Example 324, trans-4-(4-((2-(3,5-dichloropyridin-4-yl)-2-oxoethyl)-((1-hydroxycyclopentyl)methyl)carbamoyl)-5-(trifluoromethyl)pyrazol-1-yl)-1-methylcyclohexane-1-carboxylic acid]
3 | 11700 | CC12CCC(CN(CC(=O)c3c(Cl)cncc3Cl)C(=O)c3cnn([C@H]4CC[C@H](C(=O)O)CC4)c3C(F)(F)F)(CC1)C2 [Example 192, trans-4-(4-((2-(3,5-dichloropyridin-4-yl)-2-oxoethyl)-((1-methyl-4-bicyclo[2.2.1]heptanyl)methyl)carbamoyl)-5-(trifluoromethyl)pyrazol-1-yl)cyclohexane-1-carboxylic acid]
4 | 81300 | CC(C)CCN(CC(=O)c1c(Cl)cncc1Cl)C(=O)c1cnn([C@H]2CC[C@H](C(=O)O)CC2)c1C(F)(F)F [Example 32, trans-4-(4-((2-(3,5-dichloropyridin-4-yl)-2-oxoethyl)(isopentyl)carbamoyl)-5-(trifluorornethyl)-1H-pyrazol-1-yl)cyclohexanecarboxylic acid]
5 | 8320 | CC(C)(C)CN(CC(=O)c1c(Cl)cc(F)cc1Cl)C(=O)c1cnn([C@H]2CC[C@](C)(C(=O)O)CC2)c1C(F)(F)F [Example 94, trans-4-(4-((2-(2,6-dichloro-4-fluorophenyl)-2-oxoethyl)-(2,2-dimethylpropyl)carbamoyl)-5-(trifluoromethyl)pyrazol-1-yl)-1-methylcyclohexane-1-carboxylic acid]
6 | 1.32e+06 | O=C(CN(CC1CC1)C(=O)c1cnn([C@H]2CC[C@H](C(=O)O)CC2)c1C(F)(F)F)c1c(Cl)cncc1Cl [Example 72, trans-4-(4-((cyclopropylmethyl)(2-(3,5-dichloropyridin-4-yl)-2-oxoethyl)carbamoyl)-5-(trifluoromethyl)-1H-pyrazol-1-yl)cyclohexanecarboxylic acid]
7 | 56200 | COc1cc(Cl)c(C(=O)CN(Cc2cc(F)cc(F)c2)C(=O)c2cnn([C@H]3CC[C@H](C(=O)O)CC3)c2C(F)(F)F)c(Cl)c1 [Example 67, trans-4-(4-((2-(2,6-dichloro-4-methoxyphenyl)-2-oxoethyl)(3,5-dffluorobenzyl)carbamoyl)-5-(trifluoromethyl)-1H-pyrazol-1-yl)cyclohexanecarboxylic acid]
8 | 102000 | CC(C)(F)CN(CC(=O)c1c(Cl)cncc1Cl)C(=O)c1cnn([C@H]2CC[C@](C)(C(=O)O)CC2)c1C(F)(F)F [Example 326, trans-4-(4-((2-(3,5-dichloropyridin-4-yl)-2-oxoethyl)-(2-fluoro-2-methylpropyl)carbamoyl)-5-(trifluoromethyl)pyrazol-1-yl)-1-methylcyclohexane-1-carboxylic acid]
9 | 12900 | CC1(C)CCC(N(CC(=O)c2c(Cl)cncc2Cl)C(=O)c2cnn([C@H]3CC[C@](C)(C(=O)O)CC3)c2C(F)(F)F)CC1 [Example 229, trans-4-(4-((2-(3,5-dichloropyridin-4-yl)-2-oxoethyl)-(4,4-dimethylcyclohexyl)carbamoyl)-5-(trifluoromethyl)pyrazol-1-yl)-1-methylcyclohexane-1-carboxylic acid]
10 | 28800 | CC1(C)[C@@H]2C[C@H](N(CC(=O)c3c(Cl)cccc3OC(F)F)C(=O)c3cnn([C@H]4CC[C@](C)(C(=O)O)CC4)c3C(F)(F)F)C[C@@H]21 [Example 400, trans-4-(4-((2-(2-chloro-6-(difluoromethoxy)phenyl)-2-oxyethyl)((1R,3r,5S)-6,6-dimethylbicyclo[3.1.0]hexan-3-yl)carbamoyl)-5-(trifluoromethyl)-1H-pyrazol-1-yl)-1-methylcyclohexanecarboxylic acid]
11 | 21900 | CC1(C)[C@@H]2C[C@H](N(C[C@@H](O)c3c(F)cccc3Cl)C(=O)c3cnn([C@H]4CC[C@](C)(C(=O)O)CC4)c3C(F)(F)F)C[C@@H]21 [Example 355, trans-4-(4-((2-(2-chloro-6-fluorophenyl)-2-hydroxyethyl)((1R,3r,5S)-6,6-dimethylbicyclo[3.1.0]hexan-3-yl)carbamoyl)-5-(trifluoromethyl)-1H-pyrazol-1-yl)-1-methylcyclohexanecarboxylic acid]
12 | > 1.05e+06 | O=C(CN(Cc1cc(F)cc(F)c1)C(=O)c1cnn([C@H]2CC[C@H](C(=O)O)CC2)c1C(F)(F)F)c1c(Cl)nsc1Cl [Example 216, trans-4-(4-((2-(3,5-dichloro-1,2-thiazol-4-yl)-2-oxoethyl)-((3,5-difluorophenyl)methyl)carbamoyl)-5-(trifluoromethyl)pyrazol-1-yl)cyclohexane-1-carboxylic acid]
13 | > 1e+07 | O=C(CN(C(=O)c1cnn([C@H]2CC[C@H](C(=O)O)CC2)c1C(F)(F)F)C1CCOCC1)c1c(Cl)cncc1Cl [Example 181, trans-4-(4-((2-(3,5-dichloropyridin-4-yl)-2-oxoethyl)-(oxan-4-yl)carbamoyl)-5-(trifluoromethyl)pyrazol-1-yl)cyclohexane-1-carboxylic acid]
14 | 12900 | O=C(CN(CC1(F)CCCC1)C(=O)c1cnn(C23CCC(C(=O)O)(CC2)CC3)c1C(F)(F)F)c1c(Cl)cc(Cl)cc1Cl [Example 298, 4-(4-((1-fluorocyclopentyl)methyl-(2-oxo-2-(2,4,6-trichlorophenyl)ethyl)carbamoyl)-5-(trifluoromethyl)pyrazol-1-yl)bicyclo[2.2.2]octane-1-carboxylic acid]
15 | 3.47e+06 | CC1(C)CCC(N(CC(=O)c2c(Cl)cncc2Cl)C(=O)c2cnn([C@H]3CC[C@](C)(C(=O)O)CC3)c2C(F)F)CC1 [Example 196, trans-4-(4-((2-(3,5-dichloropyridin-4-yl)-2-oxoethyl)-(4,4-dimethylcyclohexyl)carbamoyl)-5-(difluoromethyl)pyrazol-1-yl)-1-methylcyclohexane-1-carboxylic acid]
16 | 3390 | Cc1cc(Cl)c(C(=O)CN(CC23CCC(C)(CC2)O3)C(=O)c2cnn([C@H]3CC[C@](C)(C(=O)O)CC3)c2C(F)(F)F)c(Cl)c1 [Example 226, trans-4-(4-((2-(2,6-dichloro-4-methylphenyl)-2-oxoethyl)-((1-methyl-7-oxabicyclo[2.2.1]heptan-4-yl)methyl)carbamoyl)-5-(trifluoromethyl)pyrazol-1-yl)-1-methylcyclohexane-1-carboxylic acid]
17 | 81300 | O=C(CN(Cc1ccc(F)cc1)C(=O)c1cnn([C@H]2C[C@H](C(=O)O)C2)c1C(F)(F)F)c1c(Cl)cncc1Cl [Example 82, trans-3-(4-((2-(3,5-dichloropyridin-4-yl)-2-oxoethyl)(4-fluorobenzyl)carbarnoyl)-5-(trifluoromethyl)-1H-pyrazol-1-yl)cyclobutanecarboxylic acid]
18 | 24000 | C[C@]1(C(=O)O)CC[C@H](n2ncc(C(=O)N(CC(=O)c3c(Cl)cncc3Cl)CC3(C(F)(F)F)CC3)c2C(F)(F)F)CC1 [Example 330]
19 | 50100 | CC1(C)CC[C@@H](N(CC(=O)c2c(Cl)cncc2Cl)C(=O)c2cnn([C@H]3CC[C@H](C(=O)O)CC3)c2C(F)(F)F)C1 [Example 223, trans-4-(4-((2-(3,5-dichloropyridin-4-yl)-2-oxoethyl)-((1R)-3,3-dimethylcyclopentyl)carbamoyl)-5-(trifluoromethyl)pyrazol-1-yl)cyclohexane-1-carboxylic acid]
20 | 56200 | O=C(CN(Cc1ccccc1)C(=O)c1cnn([C@H]2CC[C@H](C(=O)O)CC2)c1C(F)(F)F)c1c(Cl)cncc1Cl [Example 40, trans-4-(4-(benzyl(2-(3,5-dichloropyridin-4-yl)-2-oxoethyl)carbamoyl)-5-(trifluoromethyl)-1H-pyrazol-1-yl)cyclohexanecarboxylic acid]
21 | 8320 | CC12CCC(CN(CC(=O)c3c(Cl)cc(F)cc3Cl)C(=O)c3cnn([C@H]4CC[C@](C)(C(=O)O)CC4)c3C(F)(F)F)(CC1)C2 [Example 274, trans-4-(4-((2-(2,6-dichloro-4-fluorophenyl)-2-oxoethyl)-((1-methyl-4-bicyclo[2.2.1]heptanyl)methyl)carbamoyl)-5-(trifluoromethyl)pyrazol-1-yl)-1-methylcyclohexane-1-carboxylic acid]
22 | 83200 | CC1(C)[C@@H]2C[C@H](N(CCc3c[nH]c4cncc(Cl)c34)C(=O)c3cnn([C@H]4CC[C@](C)(C(=O)O)CC4)c3C(F)(F)F)C[C@@H]21 [Example 380, trans-4-(4-((2-(4-chloro-1H -pyrrolo(2,3-c)pyridin-3-yl)ethyl)((1R,3r,5S)-6,6-dimethylbicyclo[3.1.0]hexan-3-yl)carbamoyl)-5-(trifluoromethyl)-1H-pyrazol-1-yl)-1-methylcyclohexanecarboxylic acid]
